Patent US20120041071A1, “[…] TREATING PAIN DUE TO OSTEOARTHRITIS” (Gruenenthal GmbH, priority 2007, published 2012)

Columns and labels:
[1] = molecular target: recombinantly produced μ-opioid receptor (Homo sapiens, UniProt P35372); experiment: Affinity to recombinantly produced μ-opioid receptor; type: binding; details: in humans; relative to morphine
pain = experiment: Clinical studies of pain-alleviating action compared with morphine; type: in vivo, human
[2] = tested on: moderate to severe pain due to arthrosis of the knee; experiment: Randomised, placebo-controlled double-blind study, tapentadol PR vs oxycodone HCl CR, 28 days (Example 1); type: in vivo, human; details: compared with oxycodone
Procedure: The efficacy and tolerability of tapentadol with prolonged release (prolonged release (PR)) and oxycodone HCl with controlled release (controlled release (CR)) were compared with a placebo in patients with moderate to severe pain due to arthrosis of the knee.
Patients (N=670) were randomly selected and treated over 28 days twice with tapentadol PR 100 mg, with tapentadol PR 200 mg, with oxycodone HCl CR 20 mg or with a placebo. The dose was titrated at the start of the treatment. The primary efficacy endpoint was the average perception of pain during the preceding 24 hours at the time of the last medical examination (final visit) based on a visual analog 100-mm sale (VAS, 0 mm=no pain, 100 mm=worst pain imaginable)).
The study consisted of a 14-day, double-blind titration phase (3 days->11 days) followed by a 14-day double-blind maintenance phase (at the highest dose of the titration scheme in each case; see FIG. 1):
tapentadol PR 100 mg: 25 mg (bid)->50 mg (bid)->100 mg (bid);
tapentadol PR 200 mg: 100 mg (bid)->150 mg (bid)->200 mg (bid);
oxycodone HCl CR 20 mg: 10 mg (bid)->10 mg (bid)->20 mg (bid).

recombinantly produced μ-opioid receptor, sequence (P35372 whole entry): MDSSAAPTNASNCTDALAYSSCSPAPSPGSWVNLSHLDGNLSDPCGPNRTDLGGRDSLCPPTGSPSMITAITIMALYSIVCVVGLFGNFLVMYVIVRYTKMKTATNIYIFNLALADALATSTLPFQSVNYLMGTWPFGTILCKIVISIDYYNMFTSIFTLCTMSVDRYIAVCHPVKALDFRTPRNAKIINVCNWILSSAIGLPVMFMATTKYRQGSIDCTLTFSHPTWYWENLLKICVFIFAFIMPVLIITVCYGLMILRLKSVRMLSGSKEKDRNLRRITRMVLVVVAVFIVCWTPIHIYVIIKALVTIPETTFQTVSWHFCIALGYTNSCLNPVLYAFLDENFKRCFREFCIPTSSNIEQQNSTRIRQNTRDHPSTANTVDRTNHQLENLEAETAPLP

## CC[C@@H](c1cccc(O)c1)[C@@H](C)CN(C)C [tapentadol, (−)-(1R,2R)-3-(3-dimethylamino-1-ethyl-2-methyl-propyl)-phenol]
[1]
  affinity to the recombinantly produced μ-opioid receptor, times less than that of morphine: 18 times
pain
  pain-alleviating action relative to morphine: two to three times less than that of morphine
[2]
  tolerability with respect to gastrointestinal and central nervous system side effects: better tolerated than oxycodone
